Assay results as given in patent US20120232046A1, “METHOD AND KIT FOR REDUCING THE SYMPTOMS OF PERIPHERAL VASCULAR DISEASE” (Dimera Incorporated, priority 2003, published 2012).

Legend:
Assay type in all cases: cell-based, rhesus monkeys
[1] = tested on: isolated peripheral vascular muscle cells (VMC) from large arteries of the foreleg; assay: Averaged PKC signals in nicotine-stimulated VMC; settings: VMC pre-treated with wash of 4 ng/ml hormone, 10 μM nicotine; for peripheral-to-central PKC ratio: versus control; for change of PKC loci or intensity after nicotine stimulation: versus control values
From the text: (§1) Single VMCs from large arteries of the foreleg of adult rhesus monkeys are isolated and studied both as freshly dispersed and as primary cultures. The short-term primary cultured cells (never passaged) maintain the characteristics of the source tissue for 2 to 3 weeks, including contraction, relaxation, receptors, and membrane electrical properties. VMCs are dissociated with collagenase and protease enzymes in a potassium glutamate solution (KG) that prevents loading with Na^+, Ca^2′, or Cl^− and results in a high proportion of viable, contracting cells. See, Self, D. A., et al., J. Vasc. Res. 31:359-366 (1994); and Rusch., N. J., et al., Physiology and Pathophysiology of the Heart, 999-1010 (1995), each of which is incorporated herein by reference. The cells prepared for culture are seeded at low density in cardiovascular culture solution for mammals, fifth generation (CV5M) on glass coverslips to facilitate selection of individual cells. VMCs are used for studies 7 to 14 days after attaching to coverslips.
(§2) Freshly dispersed or primary cultured VMCs on glass coverslips are placed in a chamber of laminar flow design and observed with a high numerical aperture water immersion objective. Ionic solution for mammals version 2 (ISM2) is continuously pumped through the chamber (at 1 ml/minute) to provide continuous equilibration and washout of drugs. After a 15 minutes equilibration period, VMC are loaded for 15 minutes at room temperature with 3 μM fluo 3 (Molecular Probes, Inc.) for sensing Ca^2+ and for 10 minutes with 30-100 nM hypericin (LC Laboratories) for reporting PKC. Individual VMC are stimulated by adding 20 μl of 10 μM nicotine over the individual cell. After 15 seconds under no-flow conditions, continuous flow of ISM2 was reinstated and a chamber volume of approximately 300 μl was maintained. Fluorescent images are taken at 1, 2, 5, 10, 15, 20 and 30 minutes after stimulation for Ca^2+ and at 3, 4, 9, 16, 21 and 31 minutes for PKC to evaluate subcellular distribution of these signals, and to determine VMC contraction.
(§3) ISM2 contains (in mM): 100 NaCl, 4 NaHCO3, 0.5 NaH2PO4, 4.7 KCl, 1.8 CaCl2, 0.41 […], 50 HEPES (pH 7.37), and 5.5 dextrose; KG solution contains (in mM); 140 K-glutamate, 16 NaHCO3, 0.5 NaH2PO4, 30 HEPES, and 16.5 dextrose at pH 7.3. CV5M contains: 4.0 mM L-glutamine, 10 μg/ml ciprofloxacin (Miles Pentex/Bayer Corporation), 50 mM HEPES (pH 7.3), and 16 mM NaHCO3 dissolved in 85% MEM-Earle's salts and 15% horse serum. Phenol red, known to have estrogenic activity, is omitted from all solutions.
One group of cells is pre-treated with a wash of 4 ng/ml of progesterone before stimulation with nicotine. A second group of cells is pre-treated with a wash of 4 ng/ml testosterone before stimulation. […]

[2] = tested on: isolated peripheral vascular muscle cells (VMC) from large arteries of the foreleg; assay: Averaged Ca2+ signals in nicotine-stimulated VMC; settings: VMC pre-treated with wash of 4 ng/ml hormone; for decrease in peripheral-to-central Ca2+ localization ratio / peak of Ca2+ increase after nicotine stimulation: 10 μM nicotine; for peak of Ca2+ increase after nicotine stimulation: versus non-treatment group; for whole cell Ca2+ response to nicotine stimulation: stimulated with 10 μM nicotine
From the text: as §1, §2, §3
One group of cells is pre-treated with a wash of 4 ng/ml of progesterone before stimulation with nicotine. A second group of cells is pre-treated with a wash of 4 ng/ml testosterone before stimulation. A third group of cells, the “non-treatment group”, is pre-treated with a wash of normal saline before stimulation. A fourth group of cells, which forms the control group, is pre-treated with a wash of normal saline and followed by “stimulation” with normal saline.
Normalized (per pixel) changes in intracellular Ca^2+ levels are expressed as averages over whole VMC and as peripheral-to-central ratios. […] The ratio decreases because of Ca^2+ release from intracellular stores.

[3] = tested on: isolated peripheral vascular muscle cells (VMC) from large arteries of the foreleg; assay: Averaged contractions (cell width) of nicotine-stimulated VMC; settings: primary cultured VMC pre-treated with wash of 4 ng/ml hormone, 10 μM nicotine; versus 0-min controls
From the text: as §1
Freshly dispersed or primary cultured VMCs on glass coverslips are placed in a chamber of laminar flow design and observed with a high numerical aperture water immersion objective. […]
Normalized changes in cell widths from primary cultured VMC is determined.

SMILES | peripheral-to-central PKC ratio [1] | change of PKC loci or intensity after nicotine stimulation [1] | decrease in peripheral-to-central Ca2+ localization ratio [2] | peak of Ca2+ increase after nicotine stimulation [2] | whole cell Ca2+ response to nicotine stimulation [2] | VMC contractions (central cell widening) [3]
CC(=O)[C@H]1CC[C@H]2[C@@H]3CCC4=CC(=O)CC[C@]4(C)[C@H]3CC[C@]12C [progesterone] | never significantly different from control | fails to change PKC loci or intensity significantly from control values | too small to be significant | smaller peak than in the non-treatment group | only transiently stimulated by nicotine | significantly different from 0-min controls only in the first few minutes following stimulation
C[C@]12CC[C@H]3[C@@H](CCC4=CC(=O)CC[C@@]43C)[C@@H]1CC[C@@H]2O [testosterone] | never significantly different from control | fails to change PKC loci or intensity significantly from control values | too small to be significant | smaller peak than in the non-treatment group | only transiently stimulated by nicotine | significantly different from 0-min controls only in the first few minutes following stimulation
